Measurements taken from patent publication US10517926B2, “Oligopeptide having proinflammatory cytokine secretion-inhibiting activity” (Osaka University, priority 2015, dated 2019).

Experiments:
[1] = tested on: cerebral infarction model mice; experiment: Osteoclasts after cerebral infarction in vivo (TRAP staining of radius); parameters: species or system mouse; settings: 300 μG i.v. then 336 μg s.c.; radius distal portion, paralyzed side, 48 hours; FIG. 24
Protocol: Cerebral infarction models were produced in the same manner as in Example 10. Four hours after the production of the cerebral infarction models, 300 μG/150 μL of MHP1 administration solution was administered through the cervical vein. Thereafter, 336 μg was continuously administered by subcutaneous injection using an Alzet pump for 21 hours. Forty-eight hours after the production of the cerebral infarction models, the radius distal portion of the left hand (paralyzed side) was stained with TRAP, and the ratio of the stained region (osteoclast surface) relative to the bone surface was calculated based on the obtained staining images.

MG6 cells [2] = experiment: Stability of RANKL peptide: activity after storage in water; type: cell-based, mouse; settings: 2 mg/ml in water, 4° C., 208 days
Protocol: (§1) MG6 cells (mouse-derived microglial cell line) were cultured in a DMEM medium (+4% FBS) containing MHP1 or MHP2 (final concentration: 50 or 100 μg/ml), and LPS (final concentration: 2 ng/ml) for 24 hours by a standard method. After culture, the concentrations of IL-6 and TNFα in the medium were measured by the ELISA method. In the Examples of the present application, the ELISA method was performed using a kit (Quantikine ELISA Mouse TNF-α or Quantikine ELISA Mouse IL-6, produced by R&D Systems). The results are shown in FIG. 1 (IL-6) and FIG. 2 (TNFα).
MHP1 was dissolved in water to a concentration of 2 mg/ml, and stored at 4° C. for 208 days. Thereafter, the proinflammatory cytokine secretion-inhibiting effect of this MHP1 was examined in the same manner as in Example 2, except that the final concentration of MHP1 was set to 100 μg/ml.

[3] = tested on: cerebral infarction model mice; experiment: Necrosis inhibition by intravenous administration in cerebral infarction models; type: in vivo, mouse; settings: 300 μG i.v. 4 hours after infarction, then 336 μg s.c. over 21 hours
Protocol: A cerebral ischemic area was artificially developed in wild-type mice (C57BL6/J) using embolic suture. Specifically, nylon suture was inserted from the right external carotid artery into the intracranial internal carotid artery, and the right middle cerebral artery was temporarily occluded. The embolic suture was removed 40 minutes after the formation of the ischemic area, and the blood was reperfused. Four hours after the formation of the ischemic area, 2 μl of MHP1 solution (0.625 μg/2 μl, the solvent was artificial cerebrospinal fluid (aCSF)) or 2 μl of aCSF was administered by injection into the ventricle of the mice with a neurological severe score of 1 or 2. […] The area of the cresyl violet staining site was regarded as the cerebral infarct area (necrosis site), and the ratio of cerebral infarct area was determined by the following formula. […]
Cerebral infarction models were produced in the same manner as in Example 10. […] Twenty-four hours and forty-eight hours after the production of the cerebral infarction models, neurological severity scores were measured. Furthermore, the mice were sacrificed 48 hours after the production of the cerebral infarction models, and the ratio of cerebral infarct area was determined in the same manner as in Example 10.

MG6 cells [4] = experiment: Proinflammatory cytokine secretion inhibition, LPS-stimulated microglial cells (ELISA); type: cell-based, mouse; settings: MG6 cells, peptide 50 or 100 μg/ml, LPS 2 ng/ml, 24 hours
Protocol: as §1
The proinflammatory cytokine secretion-inhibiting effect was examined in the same as in Example 2, except that the final concentration of MHP1 was set to 100 μg/ml, and that RANKL full-length protein was used at a final concentration of 10 ng/ml or 100 ng/ml as the comparison target.

[5] = tested on: cerebral ischemia mice (C57BL6/J); experiment: Necrosis after cerebral ischemia, intraventricular administration; type: in vivo, mouse
Protocol: A cerebral ischemic area was artificially developed in wild-type mice (C57BL6/J) using embolic suture. Specifically, nylon suture was inserted from the right external carotid artery into the intracranial internal carotid artery, and the right middle cerebral artery was temporarily occluded. The embolic suture was removed 40 minutes after the formation of the ischemic area, and the blood was reperfused. Four hours after the formation of the ischemic area, 2 μl of MHP1 solution (0.625 μg/2 μl, the solvent was artificial cerebrospinal fluid (aCSF)) or 2 μl of aCSF was administered by injection into the ventricle of the mice with a neurological severe score of 1 or 2. Separately, a group to which edaravone, which is a known brain-protecting agent, was administered was also produced (aCSF intraventricular administration+3 mg/kg of edaravone i.p., administered every 12 hours). The brain was removed 72 hours after the formation of the ischemic area, and a brain slice including left and right brain portions in positions of 1.4, 0.7, and 0 mm in the front and rear of the bregma was produced. The slice was stained with cresyl violet. The area of the […] was regarded as the cerebral infarct area (necrosis site), and the ratio of cerebral infarct area was determined by the following formula. […] Ratio of cerebral infarct area=([normal side brain area]−([cerebral infarct side total area]−[cerebral infarct area])/normal side brain area)×100
Furthermore, the ratio of F4/80-positive cells (activated macrophage/microglia) in the cerebral infarction hemisphere in a position of 0.7 mm from the bregma (/middle cerebral artery region), and the number of the cells were measured.

[6] = tested on: osteoclast precursor cells; experiment: Osteoclast differentiation, Osteoclast Culture Kit (TRAP and nuclear staining); type: cell-based
Protocol: Osteoclast Culture Kit V-2 (OSC33, produced by Cosmo Bio Co., Ltd.) was used. According to the manual of the kit, culture of osteoclast precursor cells was started in the presence of M-CSF (final concentration: 50 ng/ml) in the A and B groups, and in the presence of M-CSF (final concentration: 50 ng/ml) and MHP1 (final concentration: 30, 50, or 100 μg/ml) in the C and D groups. Thereafter, 24 hours to 7 days after the start of culture, the A group was cultured in the presence of M-CSF (final concentration: 50 ng/ml), the B group was cultured in the presence of M-CSF (final concentration: 50 ng/ml) and RANKL protein (final concentration: 50 ng/ml), the C group was cultured in the presence of M-CSF (final concentration: 50 ng/ml) and MHP1 (final concentration: 30, 50, or 100 μg/ml), and the D group was cultured in the presence of M-CSF (final concentration: 50 ng/ml), RANKL protein (final concentration: 50 ng/ml), and MHP1 (final concentration: 30, 50, or 100 μg/ml). After culture, the cells were subjected to TRAP staining and nuclear staining according to a standard method.

Question: How did the “increase in the number of TRAP-positive osteoclasts on the bone ridge due to cerebral infarction” value [1] turn out when “LMVYVVKTSIKIPSSHNLMKGGSTKNWSGN (listed as Mus musculus) [MHP1]” was run?
Answer: suppressed

Question: What about the stability (MG6 cells [2]) of the same sequence?
Answer: high

Question: And the “proinflammatory cytokine secretion-inhibiting effect after long-term storage” value (MG6 cells [2]; tested at 100 μg/ml on MG6 cells, FIG. 18)?
Answer: exhibited a proinflammatory cytokine secretion-inhibiting effect

Question: What about the “symptoms of cerebral infarction (neurological severity scores)” value ([3]; 24 and 48 hours, FIG. 23) of the same sequence?
Answer: could be relieved

Question: And the “necrosis occurring after cerebral ischemia (ratio of cerebral infarct area)” value ([3]; 48 hours, FIG. 22)?
Answer: could be suppressed

Question: What about the “increase in the amount of IL-6 secretion by LPS” value (MG6 cells [4]; FIG. 1) of the same sequence?
Answer: suppressed

Question: And the “increase in the amount of TNFα secretion by LPS” value (MG6 cells [4]; FIG. 2)?
Answer: suppressed

Question: What about the “necrosis occurring after cerebral ischemia (ratio of cerebral infarct area)” value ([5]; 0.625 μg/2 μl into the ventricle 4 hours after ischemia, brain at 72 hours, FIG. 15) of the same sequence?
Answer: could be inhibited

Question: And the “expression of activated macrophage/microglia (F4/80-positive cells)” value ([5]; cerebral infarction hemisphere, 0.7 mm from the bregma, FIG. 16)?
Answer: suppressed

Question: What about the “degree of inhibition of necrosis compared with edaravone administration” value ([5]; one MHP1 administration vs edaravone 3 mg/kg i.p. every 12 hours, FIG. 15) of the same sequence?
Answer: higher than edaravone administration

Question: And the “differentiation of osteoclasts promoted by RANKL” value ([6]; M-CSF 50 ng/ml + RANKL protein 50 ng/ml + MHP1 30, 50 or 100 μg/ml, FIG. 13 (a))?
Answer: inhibited

Question: What about the “differentiation of osteoclasts by the substance itself” value ([6]; with M-CSF 50 ng/ml, MHP1 30, 50 or 100 μg/ml or RANKL protein 50 ng/ml, FIG. 13) of the same sequence?
Answer: did not occur
